{"source": "ChEMBL document CHEMBL6121046", "about": "“Discovery of Novel Hydrazide-Based HDAC3 Inhibitors as Epigenetic Immunomodulators for Cancer Immunotherapy” (J Med Chem, 2025)", "key": {"[1]": {"tested_on": "Mus musculus", "assay": "(§1) Immunomodulatory effect in C57BL/6 mouse allografted mouse MC38 cells assessed as increase in tumor infiltrating lymphocytes by measuring increase in CD8+ T helper cells in mouse blood in presence of NP19 PD-L1 inhibitor at 50 mg/kg, po treated 5 days after cell inoculation 19 th day by flow cytometry analysis (reference value: 0.35%)", "type": "functional", "conditions": "time 15 day"}, "[2]": {"assay": "Toxicity in C57BL/6 mouse allografted with mouse MC38 cells assessed as aspartate aminotransferase (AST) level in serum at 50 mg/kg, po treated 5 days after cell inoculation 19 th day", "type": "organism-based", "conditions": "in vivo, 360 h, time 15 day"}, "[3]": {"tested_on": "Mus musculus", "assay": "as §1, with “CD4+” for “CD8+”, “spleen” for “blood”, “10.8%)” for “0.35%)”", "type": "functional", "conditions": "time 15 day"}, "[4]": {"tested_on": "MC-38", "assay": "In vivo antitumor activity against mouse MC38 cells allografted in C57BL/6 mouse assessed as tumor growth inhibition at 50 mg/kg, po treated 5 days after cell inoculation 19 th day relative to control", "type": "functional", "conditions": "MC-38, 360 h, time 15 day, read-out: TGI"}, "[5]": {"tested_on": "MC-38", "assay": "Induction of PD-L1 expression in mouse MC38 cells measured after 24 hrs incubation by immunofluorescence staining analysis", "type": "functional, cell-based", "conditions": "dose 1-4 µM"}, "[6]": {"tested_on": "MC-38", "assay": "Induction of mitochondrial membrane damage in mouse MC38 cells assessed as decrease in JC-1 aggregation by measuring red fluorescence at 2 uM measured after 48 hrs (reference value: 96.70%)", "type": "functional", "parameters": "scale not given: the % may be the effect or the level left"}, "[7]": {"assay": "Toxicity in C57BL/6 mouse allografted with mouse MC38 cells assessed as pathological changes in lung at 50 mg/kg, po treated 5 days after cell inoculation 19 th day by hematoxylin and eosin analysis", "type": "organism-based", "conditions": "in vivo, 360 h, time 15 day"}, "[8]": {"assay": "Toxicity in C57BL/6 mouse allografted with mouse MC38 cells assessed as pathological changes in liver at 50 mg/kg, po treated 5 days after cell inoculation 19 th day by hematoxylin and eosin analysis", "type": "organism-based", "conditions": "in vivo, 360 h, time 15 day"}, "[9]": {"tested_on": "MC-38", "assay": "In vivo antitumor activity against mouse MC38 cells allografted in C57BL/6 mouse assessed as increase in Tunel-positive cells in tumor in presence of NP19 PD-L1 inhibitor at 50 mg/kg, po treated 5 days after cell inoculation 19 th day by immunofluorescence analysis", "type": "functional, organism-based", "conditions": "time 15.0 day"}, "[10]": {"tested_on": "MC-38", "assay": "Induction of mitochondrial membrane damage in mouse MC38 cells assessed as decrease in JC-1 aggregation by measuring red fluorescence at 1 uM measured after 48 hrs (reference value: 96.70%)", "type": "functional", "parameters": "scale not given: the % may be the effect or the level left"}, "[11]": {"tested_on": "MC-38", "assay": "Induction of mitochondrial membrane damage in mouse MC38 cells assessed as increase in JC-1 monomers by measuring green fluorescence at 8 uM measured after 48 hrs (reference value: 3.13%)", "type": "functional"}, "[12]": {"tested_on": "Mus musculus", "assay": "as §1, with “CD4+” for “CD8+”, “lymph nodes” for “blood”, “15.5%)” for “0.35%)”", "type": "functional", "conditions": "time 15 day"}, "[13]": {"tested_on": "MC-38", "assay": "Induction of mitochondrial membrane damage in mouse MC38 cells assessed as increase in JC-1 monomers by measuring green fluorescence at 4 uM measured after 48 hrs (reference value: 3.13%)", "type": "functional"}, "[14]": {"tested_on": "MC-38", "assay": "Induction of PD-L1 expression in mouse MC38 cells in presence of JQ-1 BRD4 inhibitor at 4 uM measured after 24 hrs incubation by Western blot analysis", "type": "functional, cell-based"}, "[15]": {"assay": "MRT (0 to t) in Sprague-Dawley rat at 20 mg/kg, iv measured upto 12 hrs by LC-MS/MS analysis", "type": "ADME, organism-based", "conditions": "in vivo"}, "[16]": {"assay": "Toxicity in C57BL/6 mouse allografted with mouse MC38 cells assessed as alanine amino transferase (ALT) level in serum at 50 mg/kg, po treated 5 days after cell inoculation 19 th day", "type": "organism-based", "conditions": "in vivo, 360 h, time 15 day"}, "[17]": {"tested_on": "Mus musculus", "assay": "(§2) Immunomodulatory effect in C57BL/6 mouse allografted mouse MC38 cells assessed as increase in tumor infiltrating lymphocytes by measuring increase in CD8+ T helper cells in mouse blood at 50 mg/kg, po treated 5 days after cell inoculation 19 th day by flow cytometry analysis (reference value: 0.35%)", "type": "functional", "conditions": "time 15 day"}, "[18]": {"assay": "MRT (0 to infinity) in Sprague-Dawley rat at 20 mg/kg, iv measured upto 12 hrs by LC-MS/MS analysis", "type": "ADME, organism-based", "conditions": "in vivo"}, "[19]": {"assay": "Clearance in Sprague-Dawley rat at 20 mg/kg, iv measured upto 12 hrs by LC-MS/MS analysis", "type": "ADME, organism-based", "conditions": "in vivo"}, "[20]": {"tested_on": "MC-38", "assay": "In vivo antitumor activity against mouse MC38 cells allografted in C57BL/6 mouse assessed as increase in Tunel-positive cells in tumor at 50 mg/kg, po treated 5 days after cell inoculation 19 th day by immunofluorescence analysis", "type": "functional, organism-based", "conditions": "time 15.0 day"}, "[21]": {"tested_on": "Mus musculus", "assay": "as §2, with “CD4+” for “CD8+”, “lymph nodes” for “blood”, “15.5%)” for “0.35%)”", "type": "functional", "conditions": "time 15 day"}, "[22]": {"tested_on": "Mus musculus", "assay": "Induction of acetylated H3 level in tumor in C57BL/6 mouse allografted with mouse MC38 cells at 50 mg/kg, po treated 5 days after cell inoculation 19 th day by immunofluorescence analysis", "type": "functional, organism-based", "conditions": "time 15.0 day"}, "[23]": {"tested_on": "Mus musculus", "assay": "as §1, with “CD4+” for “CD8+”, “0.27%)” for “0.35%)”", "type": "functional", "conditions": "time 15 day"}, "[24]": {"tested_on": "MC-38", "assay": "In vivo antitumor activity against MC38 cells allografted in C57BL/6 mouse assessed as tumor growth inhibition in presence of NP19 PD-L1 inhibitor at 50 mg/kg, po treated 5 days after cell inoculation 19 th day relative to control", "type": "functional", "conditions": "MC-38, 360 h, time 15 day, read-out: TGI"}, "[25]": {"assay": "Toxicity in C57BL/6 mouse allografted with mouse MC38 cells assessed as body weight loss at 50 mg/kg, po treated 5 days after cell inoculation 19 th day", "type": "organism-based", "conditions": "in vivo, 360 h, time 15 day"}, "[26]": {"tested_on": "MC-38", "assay": "Induction of mitochondrial membrane damage in mouse MC38 cells assessed as increase in JC-1 monomers by measuring green fluorescence at 2 uM measured after 48 hrs (reference value: 3.13%)", "type": "functional"}, "[27]": {"tested_on": "Mus musculus", "assay": "Immunomodulatory effect in C57BL/6 mouse allografted mouse MC38 cells assessed as increase in tumor infiltrating lymphocytes by measuring increase in CD4+ T helper cells in tumor at 50 mg/kg, po treated 5 days after cell inoculation 19 th day by flow cytometry analysis (reference value: 2.57%)", "type": "functional", "conditions": "time 15 day"}, "[28]": {"tested_on": "MC-38", "assay": "In vivo antitumor activity against mouse MC38 cells allografted in C57BL/6 mouse assessed as apoptosis in tumor in presence of NP19 PD-L1 inhibitor at 50 mg/kg, po treated 5 days after cell inoculation 19 th day relative to control", "type": "functional, organism-based", "conditions": "time 15.0 day"}, "[29]": {"tested_on": "Mus musculus", "assay": "Immunomodulatory effect in C57BL/6 mouse allografted mouse MC38 cells assessed as increase in tumor infiltrating lymphocytes by measuring increase in CD4+ T helper cells in mouse blood at 50 mg/kg, po treated 5 days after cell inoculation 19 th day by flow cytometry analysis (reference value: 0.27%)", "type": "functional", "conditions": "time 15 day"}, "[30]": {"assay": "Volume of distribution at steady state in Sprague-Dawley rat at 20 mg/kg, po measured upto 12 hrs by LC-MS/MS analysis", "type": "ADME, organism-based", "conditions": "in vivo"}, "[31]": {"assay": "AUC (0 to infinity) in Sprague-Dawley rat at 20 mg/kg, po measured upto 12 hrs by LC-MS/MS analysis", "type": "ADME, organism-based", "conditions": "in vivo"}, "[32]": {"tested_on": "MC-38", "assay": "Induction of PD-L1 expression in mouse MC38 cells in presence of JQ-1 BRD4 inhibitor at 2 uM measured after 24 hrs incubation by Western blot analysis", "type": "functional, cell-based"}}, "note": "Active and inactive are the calls of the source. The calls are words filed in the database; no cut-off is given here.", "data": [{"smiles": "CCCNNC(=O)c1ccc(CNC(=O)c2cnc(-c3ccc4occc4c3)[nH]2)cc1", "values": [{"measurement": "Activity", "setting": "[1]", "result": 0.83, "unit": "%"}, {"measurement": "Activity", "setting": "[2]", "result": "Non-toxic"}, {"measurement": "Activity", "setting": "[3]", "result": 11.9, "unit": "%"}, {"measurement": "inhibition in vivo at 50 mg/kg", "setting": "[4]", "result": 63, "unit": "%"}, {"measurement": "Activity", "setting": "[5]", "result": "Dose-dependent-effect"}, {"measurement": "Activity", "setting": "[6]", "result": 91.43, "unit": "%"}, {"measurement": "Activity", "setting": "[7]", "result": "Non-toxic"}, {"measurement": "Activity", "setting": "[8]", "result": "Non-toxic"}, {"measurement": "Activity", "setting": "[9]", "result": "Active"}, {"measurement": "Activity", "setting": "[10]", "result": 93.57, "unit": "%"}, {"measurement": "Activity", "setting": "[11]", "result": 28.37, "unit": "%"}, {"measurement": "Activity", "setting": "[12]", "result": 20, "unit": "%"}, {"measurement": "Activity", "setting": "[13]", "result": 27.53, "unit": "%"}, {"measurement": "Activity", "setting": "[14]", "result": "Active"}, {"measurement": "MRT last at 12 h", "setting": "[15]", "result": 1.19, "unit": "h"}, {"measurement": "Activity", "setting": "[16]", "result": "Non-toxic"}, {"measurement": "Activity", "setting": "[17]", "result": 0.56, "unit": "%"}, {"measurement": "MRT inf", "setting": "[18]", "result": 1.2, "unit": "h"}, {"measurement": "CL", "setting": "[19]", "result": 1.67, "unit": "L/h/kg"}, {"measurement": "Activity", "setting": "[20]", "result": "Active"}, {"measurement": "Activity", "setting": "[21]", "result": 20.3, "unit": "%"}, {"measurement": "Activity", "setting": "[22]", "result": "Active"}, {"measurement": "Activity", "setting": "[23]", "result": 0.98, "unit": "%"}, {"measurement": "inhibition in vivo at 50 mg/kg", "setting": "[24]", "result": 80, "unit": "%"}, {"measurement": "Activity", "setting": "[25]", "result": "Non-toxic"}, {"measurement": "Activity", "setting": "[26]", "result": 8, "unit": "%"}, {"measurement": "Activity", "setting": "[27]", "result": 1.72, "unit": "%"}, {"measurement": "Activity", "setting": "[28]", "result": "Active"}, {"measurement": "Activity", "setting": "[29]", "result": 0.84, "unit": "%"}, {"measurement": "Vdss", "setting": "[30]", "result": 72.81, "unit": "L/kg"}, {"measurement": "AUC", "setting": "[31]", "result": 1.4298, "unit": "µg·h/mL"}, {"measurement": "Activity", "setting": "[32]", "result": "Active"}]}]}
